Patent US8399024B2, “Water-insoluble medicine” (Ebara Corporation, priority 2006, dated 2013)
Structures can show the parent of a compound that is named as a salt. Where two headings read alike, the source gives them in different places. Blank lines part the entries; values can stand above or below the molecule they belong to.

Experiments:
[1] = test system: MCF-7 tumor cells; experiment: Cytotoxicity test, viable cell count with Cell Counting Kit-8 (WST-8); format: cell-based; details: read-out: 50% inhibiting activity
Description: Ellipticine which had been size-reduced by laser beam irradiation (concentration: 2 μg/ml) was diluted with the below-mentioned culturing solution, and test samples having concentrations of 1 μg/ml, 0.5 μg/ml, 0.25 μg/ml and 0.125 μg/ml were prepared. MCF-7 (MEM-culture medium) and L-1210 (RPMI-1640 culture medium) tumor cells were used as target cells. The cytotoxicity was evaluated by counting the number of viable cells following 24 hours of culturing, using Cell Counting Kit-8. More specifically, WST-8 (U.S. Pat. No. 2,757,348) as an indicate for dehydrogenase activities was used, and the color at 450 nm was evaluated. Viability(%)=(Asamples−Ablank)/(Ano-samples−Ablank) 100%
(§1) The cytotoxicity of the SN-38 nano particles was evaluated by counting the number of viable cells following 24 hours of culturing in the same manner as in the cytotoxicity test of ellipticine as described in item (3-4) of Example 1. The 50% inhibiting activity for MCF-7 cells was 100 nM.
as §1, with “10-hydroxy-camptothecin” for “SN-38”, “72” for “24”

[2] = test system: human gastric cancer H-23 (moderately differentiated-type adenocarcinoma); experiment: Anti-tumor effect using nude mice-transplanted human tumor (Example 3); details: 60 mg/kg i.v. d7, d11, d14
[3] = Influence of the drug on the host: change in weight and symptoms (Example 3); format: in vivo, BALB/cAJcl-nu nude mouse; details: 60 mg/kg i.v. d7, d11, d14
Description: The experiment was ended after 4 weeks from the starting day of administration. The tumor cell diameter was measured twice a week, and the weight was measured at the time of administration, so as to monitor the state of tumor cell proliferation and effect of drug administration, as well as any other physical changes. The mice were kept in a small vinyl isolator throughout the experiment, except for when they were moved to a clean bench through a sleeve to perform tumor cell transplantation, administration or weight measurement.
The influence of the drug on the host was evaluated by considering the change in weight and the expression of symptoms.

[4] = test system: human gastric cancer H-23 (moderately differentiated-type adenocarcinoma); experiment: Anti-tumor effect using nude mice-transplanted human tumor (Example 2); format: in vivo, BALB/cAJcl-nu nude mouse; details: 60 mg/kg i.v. q4d×4, final day d35

SMILES: CC[C@@]1(O)C(=O)OCc2c1cc1n(c2=O)Cc2cc3cc(O)ccc3nc2-1 [DMSO solution of 10-hydroxy-camptothecin, 10-hydroxy-camptothecin]
IC50 ([1]; MCF-7, 72 hours of culturing): 100 nM

SMILES: CCc1c2c(nc3ccc(O)cc13)-c1cc3c(c(=O)n1C2)COC(=O)[C@]3(O)CC [DMSO solution of SN-38, 7-ethyl-10-hydroxycamptothecin]
IC50 ([1]; MCF-7, 24 hours of culturing): 500 nM

body state [3]: not good
maximum weight loss (max. wt. loss) [3]: 0.4%
SMILES: CCc1c2c(nc3ccc(OC(=O)N4CCC(N5CCCCC5)CC4)cc13)-c1cc3c(c(=O)n1C2)COC(=O)[C@]3(O)CC [CPT-11, irinotecan hydrochloride]
evaluation of max. IR ([2]; d18): effective (IR≧58%)
max. IR ([2]; d18): 69.0%
drug effect evaluation ([2]; d21): non-effective (IR of below 58%)
drug effect evaluation ([2]; final day d35): non-effective (IR of below 58%)
drug effect evaluation [4]: non-effective (IR of below 58%)
